{
  "source": "patent US10370425B2",
  "about": "“Peptide antagonists of the calcitonin CGRP family of peptide hormones and their use” (priority 2012, dated 2019)",
  "target": "T1, amylin receptor, AMY1, a CT (calcitonin) receptor/RAMP1 (receptor-activity modifying protein) complex (Homo sapiens, UniProt O60894+P30988)",
  "T1 construct": "host or cells: CHO-K1/AMY1/Gα15",
  "T1 sequence (P30988 25-474)": "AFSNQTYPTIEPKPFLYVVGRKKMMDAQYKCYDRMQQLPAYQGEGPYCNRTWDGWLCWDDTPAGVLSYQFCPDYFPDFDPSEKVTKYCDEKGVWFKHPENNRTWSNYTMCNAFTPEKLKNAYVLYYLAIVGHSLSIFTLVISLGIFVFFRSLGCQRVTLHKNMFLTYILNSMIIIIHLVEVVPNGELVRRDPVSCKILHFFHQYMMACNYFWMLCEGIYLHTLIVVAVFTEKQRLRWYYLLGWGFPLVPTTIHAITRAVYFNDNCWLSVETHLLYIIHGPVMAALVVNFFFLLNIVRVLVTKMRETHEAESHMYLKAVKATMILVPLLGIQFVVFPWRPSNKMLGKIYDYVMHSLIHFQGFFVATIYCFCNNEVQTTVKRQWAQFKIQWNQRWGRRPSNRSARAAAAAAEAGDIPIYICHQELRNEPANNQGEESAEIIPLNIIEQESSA",
  "T1 sequence (O60894 27-148)": "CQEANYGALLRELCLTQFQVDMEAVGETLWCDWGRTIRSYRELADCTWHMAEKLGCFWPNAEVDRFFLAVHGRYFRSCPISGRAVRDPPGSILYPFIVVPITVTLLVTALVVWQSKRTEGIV",
  "assay": "Calcium flux assay (FLIPR Calcium 4) of inhibition of α-CGRP stimulation in CHO-K1/AMY1/Gα15 cells",
  "format": "cell-based",
  "conditions": "at maximal test concentration (series starts with 1 μM); CHO-K1/AMY1/Gα15 cells stimulated with 32 nM (EC80) α-CGRP; n = 2; read-out: % Inhibition @ Maximal concentration (Mean +/− SD, n = 2)",
  "experimental": "Using a calcium flux assay, the dose-dependent inhibitory response of peptide antagonists of the present invention on an amylin receptor, AMY1, a CT (calcitonin) receptor/RAMP1 (receptor-activity modifying protein) complex was determined. The recombinant cell line CHO-K1/AMY1/Gα15 (GenScript, Piscataway, N.J., Catalog No. M00475) was employed in the assay. Peptide antagonist activities were tested, in duplicate, at five different concentrations, starting with 1 μM and serially diluted five-fold, in DMSO. AC187 (SEQ ID NO: 55), a known amylin receptor antagonist (available for example from Tocris Bioscience, Minneapolis, Minn., Catalog No. 3419) was used as a positive control in the assays, and human α-CGRP, a known amylin receptor agonist (SEQ ID NO:56) , (available for example from Tocris Bioscience, Minneapolis, Minn., Catalog No. 3012) was used as a positive control in the assays. The FLIPR® Calcium 4 Assay Kit (Molecular Devices, Sunnyvale, Calif.) was used.\nHuman α-CGRP having the amino acid sequence, NH2-[…]-NH2 (SEQ ID NO:56) and AC187 having the sequence […] (SEQ ID NO: 55) were employed as negative and positive controls, respectively. Stock solutions were further diluted in HBSS-HEPES buffer to make 5×final control solutions.\nCHO-K1/AMY1/Gα15 cells were seeded in a 384-well black wall, clear bottom plate at a density of 20,000 cells/well in 20 μL of growth medium 20 hours prior to the day of the experiment and maintained at 37° C./5% CO2.\nPer the assay kit protocol, dye-loading solution (at 2×final concentration) was added into the assay plate, 20 μL per well. Compound solution (at 5 ×final concentration) was added into the assay plate, 10 uL per well. The assay plate was placed into a 37° C. incubator for 1 hour, then left for 15 min at RT. The agonist plate (at 5×EC80 concentration) was placed in Source 2. The total reading time was 120 sec. The agonist was added after 20 seconds reading of the baseline and the fluorescence signal was captured for another 100 seconds (21 s to 120 s).\nIn screening, cells stimulated with assay buffer were chosen as the background; cells stimulated with agonist (at […] concentration) were chosen as the negative control.\nData were recorded by ScreenWorks (version 3.1) as FMD files and stored on the GenScript computer network for off-line analysis. Data acquisition and analyses was performed using ScreenWorks (version 3.1) program and exported to Excel. The average value of 20 (1 s to 20 s) seconds reading was calculated as the baseline reading and the relative fluorescent units (ΔRFU) intensity values were calculated with the maximal fluorescent units (21 s to 120 s) subtracting the average value of baseline reading.\nThe IC50 value of AC187 was 8 μM. The inhibitory activity of the tested peptide antagonists was normalized with the negative control (AC187) and reported as % Inhibition, calculated from the following equation: % Inhibition=(ΔRFUcompound−ΔRFUBackground)/(ΔRFUNegative control−ΔRFUBackground) * 100% Inhibition was then plotted along the Y-axis, with the test concentrations as indicated on the X-axis. The peptides were tested at indicated concentrations and stimulated with 32 nM (EC80) α-CGRP (Mean +/− SD, n=2).",
  "note": "Positions of bridges follow the written chain, without caps; N, C: chain ends. Residues, ends and D or L forms follow the SMILES beside them.",
  "data": [
    {"smiles": "CC(C)C[C@H](NC(=O)[C@H](CCCNC(=N)N)NC(=O)CNC(=O)[C@H](CC(C)C)NC(=O)[C@@H](NC(=O)[C@@H]1CSSC[C@H](N)C(=O)N[C@@H](CO)C(=O)N[C@@H](CC(N)=O)C(=O)N[C@@H]([C@@H](C)O)C(=O)N[C@@H](C)C(=O)N[C@@H](C(C)C)C(=O)N1)C(C)C)C(=O)N[C@@H](CO)C(=O)N[C@@H](CCC(N)=O)C(=O)N[C@@H](CCC(=O)O)C(=O)N[C@@H](CC(C)C)C(=O)N[C@@H](Cc1c[nH]cn1)C(=O)N[C@@H](CCCNC(=N)N)C(=O)N[C@@H](CC(C)C)C(=O)N[C@@H](CCC(N)=O)C(=O)N[C@H](C(=O)N[C@@H](Cc1ccc(O)cc1)C(=O)N1CCC[C@H]1C(=O)N[C@@H](CCCNC(=N)N)C(=O)N[C@H](C(=O)N[C@@H](CC(N)=O)C(=O)N[C@H](C(=O)NCC(=O)N[C@@H](CO)C(=O)N[C@@H](CCCCN)C(=O)N[C@@H](C)C(=O)N[C@@H](Cc1ccccc1)C(N)=O)C(C)C)[C@@H](C)O)[C@@H](C)O", "note": "[compound 12] (H-CSNTAVCVLGRLSQELHRLQTYPRTNVGSKAF-NH2; disulfide 1-7 (inferred))", "values": [
      {"measurement": "inhibition at 1 µM", "result": 96.1, "unit": "%"}
    ]}
  ]
}
